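Briefly, cells in 96-well plates were exposed to five compound concentrations for 48 h, and endpoints were estimated by linear interpolation. GI50: concentration for 50% inhibition of growth. TGI marks complete inhibition of growth.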
How the values were obtained:
Experiment in all cases: NCI tumour cell line growth inhibition, 48 h
[1] = test system: RXF 393 renal
[2] = test system: SF-539 CNS
[3] = test system: ACHN renal
[4] = test system: DU-145 prostate
[5] = test system: KM12 colon
[6] = test system: NCI-H460 lung
[7] = test system: MDA-MB-231 breast
[8] = test system: HCT-15 colon
[9] = test system: SN12C renal
[10] = test system: CCRF-CEM leukemia
[11] = test system: SK-MEL-28 melanoma
[12] = test system: SNB-75 CNS
[13] = test system: UO-31 renal
[14] = test system: MDA-MB-435
[15] = test system: SF-295 CNS
[16] = test system: HT29 colon
[17] = test system: CAKI-1 renal
[18] = test system: SF-268 CNS
[19] = test system: SK-MEL-5 melanoma
[20] = test system: HOP-62 NSCLC
[21] = test system: OVCAR-3 ovarian
[22] = test system: UACC-62 melanoma
[23] = test system: BT-549 breast
[24] = test system: MCF7 breast
[25] = test system: SK-MEL-2 melanoma
[26] = test system: 786-0 renal
[27] = test system: LOX IMVI melanoma
[28] = test system: HOP-92 NSCLC
[29] = test system: HL-60(TB) leukemia
[30] = test system: SK-OV-3 ovarian
[31] = test system: OVCAR-8 ovarian
[32] = test system: T-47D breast
[33] = test system: HCC-2998 colon
[34] = test system: SNB-19 CNS
[35] = test system: IGROV1 ovarian
[36] = test system: OVCAR-4 ovarian
[37] = test system: MOLT-4 leukemia
[38] = test system: PC-3 prostate
[39] = test system: HCT-116 colon
[40] = test system: A549 NSCLC
[41] = test system: TK-10 renal
[42] = test system: EKVX NSCLC
[43] = test system: U251 CNS
[44] = test system: OVCAR-5 ovarian
[45] = test system: NCI/ADR-RES ovarian
[46] = test system: SW-620 colon
[47] = test system: K-562 leukemia
[48] = test system: NCI-H226 lung
[49] = test system: RPMI-8226 leukemia
[50] = test system: UACC-257 melanoma
[51] = test system: NCI-H23 lung
[52] = test system: HS 578T breast
[53] = test system: NCI-H522 lung
[54] = test system: COLO 205 colon
[55] = test system: A498 renal
[56] = test system: M14 melanoma
[57] = test system: MALME-3M melanoma

For Clc1ccc(OCc2nn3c(CCCCc4nnc5sc(COc6ccc(Cl)cc6Cl)nn45)nnc3s2)c(Cl)c1, the GI50 [1] was 83900 nM, the TGI [1] was over 100000 nM and the GI50 [2] was 55800 nM. For the same compound, the TGI [2] was over 100000 nM, the GI50 [3] was 93600 nM and the TGI [3] was over 100000 nM. The GI50 [4] was 71900 nM, the TGI [4] was over 100000 nM and the GI50 [5] was 31900 nM. For the same compound, the TGI [5] was over 100000 nM, the GI50 [6] was 71900 nM and the TGI [6] was over 100000 nM. It also gave a GI50 [7] of 44300 nM, a TGI [7] of over 100000 nM and a GI50 [8] of over 100000 nM. It also gave a TGI [8] of over 100000 nM, a GI50 [9] of 94300 nM and a TGI [9] of over 100000 nM. For the same compound, the GI50 [10] was 51000 nM, the TGI [10] was over 100000 nM and the GI50 [11] was over 100000 nM. It also gave a TGI [11] of over 100000 nM, a GI50 [12] of 33300 nM and a TGI [12] of over 100000 nM. For the same compound, the GI50 [13] was over 100000 nM, the TGI [13] was over 100000 nM and the GI50 [14] was 49600 nM. For the same compound, the TGI [14] was over 100000 nM, the GI50 [15] was 40600 nM and the TGI [15] was over 100000 nM. It also gave a GI50 [16] of over 100000 nM, a TGI [16] of over 100000 nM and a GI50 [17] of 40100 nM. For the same compound, the TGI [17] was over 100000 nM, the GI50 [18] was 73100 nM and the TGI [18] was over 100000 nM. It also gave a GI50 [19] of 42000 nM, a TGI [19] of over 100000 nM and a GI50 [20] of 60100 nM. The TGI [20] was over 100000 nM, the GI50 [21] was 30400 nM and the TGI [21] was 74400 nM. For the same compound, the GI50 [22] was 69400 nM, the TGI [22] was over 100000 nM and the GI50 [23] was 54200 nM. The TGI [23] was over 100000 nM, the GI50 [24] was 48100 nM and the TGI [24] was over 100000 nM. For the same compound, the GI50 [25] was over 100000 nM, the TGI [25] was over 100000 nM and the GI50 [26] was 65400 nM. The TGI [26] was over 100000 nM, the GI50 [27] was 67100 nM and the TGI [27] was over 100000 nM. The GI50 [28] was 50300 nM, the TGI [28] was over 100000 nM and the GI50 [29] was over 100000 nM. The TGI [29] was over 100000 nM, the GI50 [30] was over 100000 nM and the TGI [30] was over 100000 nM. It also gave a GI50 [31] of 46200 nM, a TGI [31] of over 100000 nM and a GI50 [32] of 43900 nM. It also gave a TGI [32] of over 100000 nM, a GI50 [33] of 35300 nM and a TGI [33] of over 100000 nM. For the same compound, the GI50 [34] was 76800 nM, the TGI [34] was over 100000 nM and the GI50 [35] was 83000 nM. The TGI [35] was over 100000 nM, the GI50 [36] was 50300 nM and the TGI [36] was over 100000 nM. For the same compound, the GI50 [37] was 18400 nM, the TGI [37] was 48500 nM and the GI50 [38] was 47800 nM. The TGI [38] was over 100000 nM, the GI50 [39] was 18100 nM and the TGI [39] was 63100 nM. For the same compound, the GI50 [40] was 82600 nM, the TGI [40] was over 100000 nM and the GI50 [41] was 32600 nM. For the same compound, the TGI [41] was 92000 nM, the GI50 [42] was 57500 nM and the TGI [42] was over 100000 nM. It also gave a GI50 [43] of 29000 nM, a TGI [43] of 89700 nM and a GI50 [44] of over 100000 nM. It also gave a TGI [44] of over 100000 nM, a GI50 [45] of 35800 nM and a TGI [45] of over 100000 nM. For the same compound, the GI50 [46] was over 100000 nM, the TGI [46] was over 100000 nM and the GI50 [47] was 22700 nM. The TGI [47] was 61000 nM, the GI50 [48] was 38000 nM and the TGI [48] was over 100000 nM. It also gave a GI50 [49] of 25400 nM, a TGI [49] of 59600 nM and a GI50 [50] of 72700 nM. It also gave a TGI [50] of over 100000 nM, a GI50 [51] of 37300 nM and a TGI [51] of over 100000 nM. It also gave a GI50 [52] of 36700 nM, a TGI [52] of over 100000 nM and a GI50 [53] of 45200 nM. The TGI [53] was over 100000 nM, the GI50 [54] was 52000 nM and the TGI [54] was over 100000 nM.
In the case of COc1ccc(CC(C)=C(c2ccc(OCCN3CCCCCC3)cc2)c2ccc(OCCN3CCCCCC3)cc2)cc1, the GI50 [1] is reported as 348 nM, the TGI [1] is reported as 1050 nM and the GI50 [2] is reported as 97.8 nM. The TGI [2] was 194 nM, the GI50 [3] was 135 nM and the TGI [3] was 374 nM. For the same compound, the GI50 [4] was 275 nM, the TGI [4] was 879 nM and the GI50 [5] was 240 nM. The TGI [5] was 823 nM, the GI50 [6] was 100 nM and the TGI [6] was 186 nM. It also gave a GI50 [7] of 176 nM, a TGI [7] of 487 nM and a GI50 [8] of 121 nM. It also gave a TGI [8] of 382 nM, a GI50 [9] of 657 nM and a TGI [9] of 1350 nM. The GI50 [10] was 158 nM, the TGI [10] was 609 nM and the GI50 [11] was 91.1 nM. For the same compound, the TGI [11] was 166 nM, the GI50 [55] was 513 nM and the TGI [55] was 1200 nM. It also gave a GI50 [12] of 487 nM, a TGI [12] of 1160 nM and a GI50 [13] of 308 nM. For the same compound, the TGI [13] was 929 nM, the GI50 [14] was 89.1 nM and the TGI [14] was 166 nM. For the same compound, the GI50 [15] was 300 nM, the TGI [15] was 861 nM and the GI50 [16] was 84.3 nM. It also gave a TGI [16] of 181 nM, a GI50 [17] of 345 nM and a TGI [17] of 930 nM. The GI50 [18] was 474 nM, the TGI [18] was 1150 nM and the GI50 [19] was 119 nM. For the same compound, the TGI [19] was 312 nM, the GI50 [20] was 626 nM and the TGI [20] was 1280 nM. It also gave a GI50 [21] of 113 nM, a TGI [21] of 239 nM and a GI50 [22] of 98.7 nM. It also gave a TGI [22] of 199 nM, a GI50 [23] of 681 nM and a TGI [23] of 1370 nM. For the same compound, the GI50 [56] was 88.6 nM, the TGI [56] was 171 nM and the GI50 [24] was 87.2 nM. For the same compound, the TGI [24] was 187 nM, the GI50 [25] was 756 nM and the TGI [25] was 1500 nM. It also gave a GI50 [26] of 83.8 nM, a TGI [26] of 159 nM and a GI50 [27] of 87.5 nM. The TGI [27] was 161 nM, the GI50 [28] was 254 nM and the TGI [28] was 986 nM. For the same compound, the GI50 [29] was 99 nM, the TGI [29] was 229 nM and the GI50 [30] was 612 nM. For the same compound, the TGI [30] was 1240 nM, the GI50 [31] was 607 nM and the TGI [31] was 1450 nM. It also gave a GI50 [32] of 219 nM, a TGI [32] of 955 nM and a GI50 [33] of 88.1 nM. For the same compound, the TGI [33] was 182 nM, the GI50 [34] was 232 nM and the TGI [34] was 817 nM. For the same compound, the GI50 [35] was 370 nM, the TGI [35] was 1020 nM and the GI50 [36] was 432 nM. For the same compound, the TGI [36] was 1110 nM, the GI50 [37] was 133 nM and the TGI [37] was 406 nM. The GI50 [57] was 90 nM, the TGI [57] was 171 nM and the GI50 [38] was 265 nM. It also gave a TGI [38] of 860 nM, a GI50 [40] of 343 nM and a TGI [40] of 1020 nM. The GI50 [41] was 729 nM, the TGI [41] was 1470 nM and the GI50 [42] was 615 nM. The TGI [42] was 1300 nM, the GI50 [43] was 107 nM and the TGI [43] was 259 nM. For the same compound, the GI50 [44] was 631 nM, the TGI [44] was 1260 nM and the GI50 [45] was 655 nM. It also gave a TGI [45] of 1410 nM, a GI50 [46] of 89 nM and a TGI [46] of 179 nM. For the same compound, the GI50 [47] was 98.7 nM, the TGI [47] was 220 nM and the GI50 [48] was 531 nM. The TGI [48] was 1420 nM, the GI50 [50] was 108 nM and the TGI [50] was 262 nM. The GI50 [51] was 709 nM, the TGI [51] was 1410 nM and the GI50 [52] was 175 nM. It also gave a TGI [52] of 757 nM, a GI50 [53] of 443 nM and a TGI [53] of 1200 nM. For the same compound, the GI50 [54] was 94.4 nM and the TGI [54] was 182 nM.

From PubChem BioAssay (NCI)
